Laboratory results from PubChem BioAssay (NCI).
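How tested: cells in 96-well plates exposed to compound for 48 hours at five concentrations. GI50 marks 50% less growth. Definition used: TGI = concentration required for complete inhibition of growth.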

Experiments:
Assay in all cases: DTP human tumour cell line panel, 48 h
786-0 renal = system: 786-0 renal
A498 renal = system: A498 renal
A549 NSCLC = system: A549 NSCLC
ACHN renal = system: ACHN renal
BT-549 breast = system: BT-549 breast
CAKI-1 renal = system: CAKI-1 renal
CCRF-CEM leukemia = system: CCRF-CEM leukemia
COLO 205 colon = system: COLO 205 colon
DU-145 prostate = system: DU-145 prostate
EKVX NSCLC = system: EKVX NSCLC
HCC-2998 colon = system: HCC-2998 colon
HCT-116 colon = system: HCT-116 colon
HCT-15 colon = system: HCT-15 colon
HL-60(TB) leukemia = system: HL-60(TB) leukemia
HOP-62 NSCLC = system: HOP-62 NSCLC
HOP-92 NSCLC = system: HOP-92 NSCLC
HS 578T breast = system: HS 578T breast
HT29 colon = system: HT29 colon
IGROV1 ovarian = system: IGROV1 ovarian
K-562 leukemia = system: K-562 leukemia
KM12 colon = system: KM12 colon
LOX IMVI melanoma = system: LOX IMVI melanoma
M14 melanoma = system: M14 melanoma
MALME-3M melanoma = system: MALME-3M melanoma
MCF7 breast = system: MCF7 breast
MDA-MB-231 breast = system: MDA-MB-231 breast
MDA-MB-435 = system: MDA-MB-435
MDA-MB-468 breast = system: MDA-MB-468 breast
MOLT-4 leukemia = system: MOLT-4 leukemia
NCI-H226 lung = system: NCI-H226 lung
NCI-H23 lung = system: NCI-H23 lung
NCI-H460 lung = system: NCI-H460 lung
NCI-H522 lung = system: NCI-H522 lung
NCI/ADR-RES ovarian = system: NCI/ADR-RES ovarian
OVCAR-3 ovarian = system: OVCAR-3 ovarian
OVCAR-4 ovarian = system: OVCAR-4 ovarian
OVCAR-5 ovarian = system: OVCAR-5 ovarian
OVCAR-8 ovarian = system: OVCAR-8 ovarian
PC-3 prostate = system: PC-3 prostate
RPMI-8226 leukemia = system: RPMI-8226 leukemia
RXF 393 renal = system: RXF 393 renal
SF-268 CNS = system: SF-268 CNS
SF-295 CNS = system: SF-295 CNS
SF-539 CNS = system: SF-539 CNS
SK-MEL-2 melanoma = system: SK-MEL-2 melanoma
SK-MEL-28 melanoma = system: SK-MEL-28 melanoma
SK-MEL-5 melanoma = system: SK-MEL-5 melanoma
SK-OV-3 ovarian = system: SK-OV-3 ovarian
SN12C renal = system: SN12C renal
SNB-19 CNS = system: SNB-19 CNS
SNB-75 CNS = system: SNB-75 CNS
SR leukemia = system: SR leukemia
SW-620 colon = system: SW-620 colon
T-47D breast = system: T-47D breast
TK-10 renal = system: TK-10 renal
U251 CNS = system: U251 CNS
UACC-257 melanoma = system: UACC-257 melanoma
UACC-62 melanoma = system: UACC-62 melanoma
UO-31 renal = system: UO-31 renal

Compound: COc1cc2c3c(n(CCCn4ccnc4)c(=O)c2cc1OC)-c1nc2c(cc1C3=O)OCO2
- GI50 (786-0 renal): 0.105 µM
- GI50 (A498 renal): > 100 µM
- TGI (A498 renal): > 100 µM
- GI50 (A549 NSCLC): 3.31 µM
- TGI (A549 NSCLC): > 100 µM
- GI50 (ACHN renal): 0.0389 µM
- GI50 (BT-549 breast): 0.356 µM
- TGI (BT-549 breast): 26.3 µM
- GI50 (CAKI-1 renal): 0.04 µM
- TGI (CAKI-1 renal): > 100 µM
- GI50 (CCRF-CEM leukemia): 0.028 µM
- GI50 (COLO 205 colon): 12.6 µM
- TGI (COLO 205 colon): > 100 µM
- GI50 (DU-145 prostate): 0.0616 µM
- TGI (DU-145 prostate): > 100 µM
- GI50 (EKVX NSCLC): > 66.4 µM
- TGI (EKVX NSCLC): > 100 µM
- GI50 (HCC-2998 colon): 19.4 µM
- TGI (HCC-2998 colon): > 100 µM
- GI50 (HCT-116 colon): 0.169 µM
- TGI (HCT-116 colon): > 100 µM
- GI50 (HCT-15 colon): 13.1 µM
- TGI (HCT-15 colon): > 100 µM
- GI50 (HL-60(TB) leukemia): 0.0485 µM
- TGI (HL-60(TB) leukemia): > 100 µM
- GI50 (HOP-62 NSCLC): 0.0339 µM
- TGI (HOP-62 NSCLC): > 100 µM
- GI50 (HOP-92 NSCLC): > 47.1 µM
- TGI (HOP-92 NSCLC): > 100 µM
- GI50 (HS 578T breast): > 100 µM
- TGI (HS 578T breast): > 100 µM
- GI50 (HT29 colon): 0.637 µM
- TGI (HT29 colon): > 100 µM
- GI50 (IGROV1 ovarian): > 52 µM
- TGI (IGROV1 ovarian): > 100 µM
- GI50 (K-562 leukemia): 0.0742 µM
- TGI (K-562 leukemia): > 100 µM
- GI50 (KM12 colon): > 100 µM
- TGI (KM12 colon): > 100 µM
- GI50 (LOX IMVI melanoma): 0.0448 µM
- TGI (LOX IMVI melanoma): 5.83 µM
- GI50 (M14 melanoma): 0.0554 µM
- TGI (M14 melanoma): > 69.3 µM
- GI50 (MALME-3M melanoma): 13.1 µM
- TGI (MALME-3M melanoma): > 100 µM
- GI50 (MCF7 breast): 0.0247 µM
- TGI (MCF7 breast): 16.3 µM
- GI50 (MDA-MB-231 breast): 45.1 µM
- TGI (MDA-MB-231 breast): > 100 µM
- GI50 (MDA-MB-435): 4.7 µM
- TGI (MDA-MB-435): > 100 µM
- GI50 (MDA-MB-468 breast): 0.028 µM
- TGI (MDA-MB-468 breast): 0.115 µM
- GI50 (MOLT-4 leukemia): 0.0356 µM
- TGI (MOLT-4 leukemia): > 100 µM
- GI50 (NCI-H226 lung): 0.124 µM
- TGI (NCI-H226 lung): > 100 µM
- GI50 (NCI-H23 lung): 0.0442 µM
- TGI (NCI-H23 lung): 11.3 µM
- GI50 (NCI-H460 lung): 0.0325 µM
- TGI (NCI-H460 lung): > 36.4 µM
- GI50 (NCI-H522 lung): 1.07 µM
- TGI (NCI-H522 lung): 37.6 µM
- GI50 (NCI/ADR-RES ovarian): > 100 µM
- TGI (NCI/ADR-RES ovarian): > 100 µM
- GI50 (OVCAR-3 ovarian): 38.5 µM
- TGI (OVCAR-3 ovarian): > 100 µM
- GI50 (OVCAR-4 ovarian): > 100 µM
- TGI (OVCAR-4 ovarian): > 100 µM
- GI50 (OVCAR-5 ovarian): > 36.7 µM
- TGI (OVCAR-5 ovarian): > 100 µM
- GI50 (OVCAR-8 ovarian): 0.803 µM
- TGI (OVCAR-8 ovarian): > 100 µM
- GI50 (PC-3 prostate): 32.2 µM
- TGI (PC-3 prostate): > 100 µM
- GI50 (RPMI-8226 leukemia): 0.852 µM
- TGI (RPMI-8226 leukemia): > 100 µM
- GI50 (RXF 393 renal): 0.335 µM
- TGI (RXF 393 renal): > 100 µM
- GI50 (SF-268 CNS): 0.0769 µM
- TGI (SF-268 CNS): > 100 µM
- GI50 (SF-295 CNS): 0.0351 µM
- TGI (SF-295 CNS): 12.8 µM
- GI50 (SF-539 CNS): 0.0363 µM
- TGI (SF-539 CNS): 0.525 µM
- GI50 (SK-MEL-2 melanoma): > 100 µM
- TGI (SK-MEL-2 melanoma): > 100 µM
- GI50 (SK-MEL-28 melanoma): > 100 µM
- TGI (SK-MEL-28 melanoma): > 100 µM
- GI50 (SK-MEL-5 melanoma): 0.07 µM
- TGI (SK-MEL-5 melanoma): 4.63 µM
- GI50 (SK-OV-3 ovarian): 0.0459 µM
- TGI (SK-OV-3 ovarian): > 100 µM
- GI50 (SN12C renal): 0.134 µM
- TGI (SN12C renal): > 100 µM
- GI50 (SNB-19 CNS): 0.0685 µM
- TGI (SNB-19 CNS): > 100 µM
- GI50 (SNB-75 CNS): 0.03 µM
- TGI (SNB-75 CNS): > 100 µM
- GI50 (SR leukemia): 0.0274 µM
- TGI (SR leukemia): 24.5 µM
- GI50 (SW-620 colon): 0.207 µM
- TGI (SW-620 colon): > 100 µM
- GI50 (T-47D breast): 0.0376 µM
- TGI (T-47D breast): > 100 µM
- GI50 (TK-10 renal): > 100 µM
- TGI (TK-10 renal): > 100 µM
- GI50 (U251 CNS): 0.0621 µM
- TGI (U251 CNS): > 100 µM
- TGI (UACC-257 melanoma): > 100 µM
- GI50 (UACC-62 melanoma): 0.0359 µM
- TGI (UACC-62 melanoma): > 100 µM
- GI50 (UO-31 renal): 0.197 µM
- TGI (UO-31 renal): > 100 µM
